Peptide text beside a SMILES is read from it. * marks the point of attachment. Cbz = O=C(OCc1ccccc1)*; CH2F = FC*
Assays:
NB10 [1] = assay: 5-aza-cytidine treatment: caspase-8 western blot and apoptosis; type: cell-based, human
Text: (§1) Caspase-8 western blot analysis of cell lysates from the NB8, NB10, and NB14 cell lines with (+) or without (−) 5-aza-2′-deoxycytidine. […] We therefore examined DNA methylation of CASP8 regulatory sequences as an alternative mechanism through which expression could be silenced, as documented for several tumor suppressor genes, such as INK4a, CDKN1, CDKN2, PTEN, MLH1, von Hippel-Lindau, and E-cadherin (Baylin et al., Adv. Cancer Res., 1998, 72:141–196; Belinsky et al., Proc. Natl. Acad. Sci. USA, 1998, 95:11891; Whang et al., Proc.Natl.Acad.Sci.USA,1998, 95:5246–5250; Merlo et al., Nature Medicine, 1995, 1:686–692).
(§2) The role of methylation of CASP8 regulatory sequences was tested by treating NB cells with 5-aza-cytidine, a compound that promotes the demethylation of CpG dinucleotides (Merlo et al., Nature Medicine, 1995, 1:686–692). When cells were treated with 10–50 μM 5-aza-cytidine for 2–3 days, caspase-8 expression was activated in the NB8 and NB11 cell lines, but not NB14 (FIG. 6A).

NB8 [2] = assay: as above; type: cell-based, human
Text: as §1, §2

NB14 = assay: as above; type: cell-based, human; conditions: after 10–50 μM for 2–3 days
Text: as §1, §2

neuroblastoma cell lines = assay: Apoptosis after re-establishing caspase-8 expression; type: cell-based, human; conditions: cell lines not expressing caspase-8
Text: The present invention is based, in part, on the surprising discovery that CASP8 is functionally inactivated in greater than 90% of all MYCN amplified neuroblastoma cell lines analyzed. Neuroblastoma is a pediatric solid tumor, and those cases with MYCN amplification have a particularly poor prognosis. […] This discovery is significant in oncology, because cells in which caspase-8 is not expressed are not capable of undergoing apoptosis mediated by death receptors such as Fas and DR3.

NB11 = assay: 5-aza-cytidine treatment: caspase-8 western blot; type: cell-based, human; conditions: 10–50 μM for 2–3 days
Text: as §1, §2

NB cell lines = assay: Sensitivity of NB cell lines to doxorubicin-induced apoptosis; type: cell-based, human
Method: (§3) In order to determine whether exogenous expression of caspase-8 resensitized caspase-8 null NB cells to chemotherapeutic agents, NB7 cells and NB7 cells transduced with pMSCV-Casp8(wt) were treated with doxorubicin. Doxorubicin-induced neuroblastoma apoptosis has previously been linked to the Fas receptor pathway (Fulda et al., Cancer Res., 1997, 57:3823–3829). The NB7 cell line was chosen since it lacks a functional CASP8 gene (FIGS. 4 and 5, Table 2).

NB7 = assay: Doxorubicin-induced apoptosis (TUNEL); type: cell-based, human
Method: as §3

NB8 [3] = assay: Doxorubicin-induced apoptosis (TUNEL); type: cell-based, human; conditions: 0.1 mM doxorubicin for 48 hrs
NB3 = assay: Doxorubicin-induced apoptosis (TUNEL); type: cell-based, human; conditions: 0.1 mM doxorubicin for 48 hrs, percentage of cell death by TUNEL
NB5 = assay: Doxorubicin-induced apoptosis (TUNEL); type: cell-based, human; conditions: 0.1 mM doxorubicin for 48 hrs, percentage of cell death by TUNEL
NB10 [4] = assay: Fas mAb-induced apoptosis in cells with programmed caspase-8 expression; type: cell-based, human; conditions: zVAD-fmk added prior to programmed expression of caspase-8
Method: (§4) FIGS. 8A, 8B, 8C, 8D, and 8E. Effects of retrovirus expression of caspase-8 in three different NB cell lines that are caspase-8 nulls. […] The caspase-8(DN) product migrates at a higher molecular weight due to an HA-tag attached to its carboxyl-terminus. B, C:Morphology of NB7/Casp8 cells 5 hours after treatment with TNFα and cycloheximide. Membrane blebbing (Nomarski view, B) and condensed chromatin (visualized by DAPI staining, C), characteristics of apoptotic cells, are clearly visible. D:Percentage of cells that are positive for cell surface annexin-V staining, another hallmark of apoptotic cells. The various cell lines and their treatment regimens are shown at the bottom. E: Apoptotic induction by Fas mAb in proliferating NB8 and NB10 cells stably expressing caspase-8 at a low level. Induction measured as percentage of cells that are TUNEL-positive. The various cell lines and their treatment regimens are shown at the bottom.
(§5) Apoptotic assays. Cells were collected for annexin V-FITC staining and FACS analysis after the culture media containing zVAD-fmk was removed and replaced with normal culture medium for 6 hours in NB8 and NB 10. […] Viable cells were determined by light and immunofluorescent microscopy after removal of the zVAD-fmk containing culture medium and incubation at 37° C. for 0.5, 1, 2, 4 and 6 hrs for the pMSCV-Casp 8(wt) and DN transduced NB8 and NB10 cells. […]

NB8 [5] = assay: as above; type: cell-based, human; conditions: zVAD-fmk added prior to programmed expression of caspase-8
Method: as §4, §5

TNFR p55 (human) = TNFR p55 (human) (UniProt P19438); assay: cell-based or functional assay
Chain of TNFR p55 (human) (P19438 30-455): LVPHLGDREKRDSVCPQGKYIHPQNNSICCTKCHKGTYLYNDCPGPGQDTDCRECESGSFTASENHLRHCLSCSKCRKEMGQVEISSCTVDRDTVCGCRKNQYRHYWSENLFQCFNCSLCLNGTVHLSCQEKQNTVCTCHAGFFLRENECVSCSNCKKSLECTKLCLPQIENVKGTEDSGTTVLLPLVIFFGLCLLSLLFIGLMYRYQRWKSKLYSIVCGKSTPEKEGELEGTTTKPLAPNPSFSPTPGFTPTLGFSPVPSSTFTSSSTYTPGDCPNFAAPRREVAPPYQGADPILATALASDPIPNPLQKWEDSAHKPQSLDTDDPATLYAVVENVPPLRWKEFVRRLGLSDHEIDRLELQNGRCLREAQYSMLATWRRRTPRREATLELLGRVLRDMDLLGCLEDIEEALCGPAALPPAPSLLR

`Nc1ncn([C@@H]2O[C@H](CO)[C@@H](O)[C@H]2O)c(=O)n1` [5-aza-cytidine] was tested, and the caspase-8 expression (NB10 [1]; FIG. 6A) was “results in the expression of caspase-8”, the spontaneous apoptosis (NB10 [1]; after 10–50 μM for 2–3 days) was “underwent spontaneous apoptosis” and the caspase-8 expression (NB8 [2]; 10–50 μM for 2–3 days) was “activated”. For the same compound, the spontaneous apoptosis (NB8 [2]; after 10–50 μM for 2–3 days) was “underwent spontaneous apoptosis”, the spontaneous apoptosis (NB14) was “not” and the “apoptosis when caspase-8 expression is re-established” value (neuroblastoma cell lines) was “undergo apoptosis”. The caspase-8 expression (NB11) was “activated”.
For `COc1cccc2c1C(=O)c1c(O)c3c(c(O)c1C2=O)C[C@@](O)(C(=O)CO)C[C@@H]3O[C@H]1C[C@H](N)[C@H](O)[C@H](C)O1` [Doxorubicin, doxorubicin], the “sensitization to doxorubicin-induced apoptosis” value (NB cell lines; NB cell lines (e.g., NB16 and NB21) expressing caspase-8) was “more sensitized”, the “sensitization to doxorubicin-induced apoptosis” value (NB cell lines; cell lines that do not express caspase-8, regardless of Fas/CD95 status) was “not sensitized” and the “Doxorubicin-induced Apoptosis (+caspase-8)” value (NB7; NB7 +caspase-8, 0.1 mM doxorubicin for 48 hrs, TUNEL) was 42 +/− 2.6%. The “Doxorubicin-induced Apoptosis” value (NB7; NB7, 0.1 mM doxorubicin for 48 hrs, percentage of cell death by TUNEL) was 24 +/− 3%, the “increase in the level of cell death” value (NB7; NB7 cells expressing functional caspase-8 vs parental/pMSCV/pMSCV-Casp8(DN), low levels of doxorubicin) was 70–100% and the “apoptosis after exposure to low levels of doxorubicin” value (NB7; parental NB7 cells and those transduced with pMSCV or pMSCV-Casp8(DN)) was “very limited apoptosis”. For the same compound, the “Doxorubicin-induced Apoptosis (+caspase-8)” value (NB8 [3]; NB8 +caspase-8, TUNEL) was 38 +/− 2%, the “Doxorubicin-induced Apoptosis” value (NB8 [3]; NB8, percentage of cell death by TUNEL) was 18 +/− 2.6% and the “Doxorubicin-induced Apoptosis” value (NB3) was 52 +/− 4%. For the same compound, the “Doxorubicin-induced Apoptosis” value (NB5) was 54 +/− 4.6%.
For `COC(=O)C[C@H](NC(=O)[C@H](C)NC(=O)[C@@H](NC(=O)OCc1ccccc1)C(C)C)C(=O)CF` [zVAD-fmk] (Cbz-Val-Ala-Asp(OMe)-CH2F), the “apoptosis induced by agonistic Fas mAb” value (NB10 [4]) was “blocked” and the “apoptosis induced by agonistic Fas mAb” value (NB8 [5]) was “blocked”.
In the case of TNF-α (ligand), the apoptosis of NB7 cells lacking caspase-8, five hours after TNF-α/CHX treatment (annexin-V staining) (TNFR p55 (human)) is reported as 5% and the apoptosis of NB7 cells transduced with pMSCV-Casp8(wt), five hours after TNF-α/CHX treatment (DAPI, annexin-V staining) (TNFR p55 (human)) is reported as 40%.
